# Like-named read-outs stand apart in the source and are kept apart here.
# Columns and labels:
# A2 adenosine receptors [1] = biological target: T1, A2 adenosine receptors (Rattus norvegicus, UniProt P30543); experiment: Inhibition of binding of [3H]N-ethylcarboxamidoadenosine to A2-adenosine receptors in rat striatal membranes; details: for A2 affinity/potency, in words: relative to the analogs named in the text
# Procedure: Affinity at A1 - and A2 -adenosine receptors was measured in competitive binding assays, using as radioligands [^3 H]N^6 -phenylisopropyladenosine^17 (with rat cerebral cortical membranes) and [^3 H]5'-N-ethylcarboxamidoadenosine (with rat striatal membranes),^18 respectively.
# N^6 -Cyclopentyladenosine was present at 50 nM to inhibit binding of the ligand at A1 -adenosine receptors. Inhibition of binding by a range of concentrations of xanthines was assessed in triplicate in at least three separate experiments. IC50 -values were converted to Ki-values by the method of Bruns et al,^18 using a conversion factor derived from the affinity of [^3 H]N-ethylcarboxamidoadenosine at A2 receptors and the Cheng-Prusoff equation.^19
# A1 adenosine receptors = biological target: T2, A1 adenosine receptors (Rattus norvegicus, UniProt P25099); experiment: Inhibition of binding of [3H]N6-phenylisopropyladenosine to A1 adenosine receptors in rat cerebral cortical membranes; details: for Ki (A2)/Ki (A1): ratio of A2 (rat striatum) to A1 (rat cortex) Ki; for A1 affinity/potency, in words: relative to the analogs named in the text; for fold less potent at A1-receptors: 6-thio analog versus oxygen analog (CPX or DPX, 24)
# T2 construct: A1 adenosine receptors in rat cerebral cortical membranes; from tissue; host or cells: rat cerebral cortex membranes
# T2 sequence (P25099 1-326): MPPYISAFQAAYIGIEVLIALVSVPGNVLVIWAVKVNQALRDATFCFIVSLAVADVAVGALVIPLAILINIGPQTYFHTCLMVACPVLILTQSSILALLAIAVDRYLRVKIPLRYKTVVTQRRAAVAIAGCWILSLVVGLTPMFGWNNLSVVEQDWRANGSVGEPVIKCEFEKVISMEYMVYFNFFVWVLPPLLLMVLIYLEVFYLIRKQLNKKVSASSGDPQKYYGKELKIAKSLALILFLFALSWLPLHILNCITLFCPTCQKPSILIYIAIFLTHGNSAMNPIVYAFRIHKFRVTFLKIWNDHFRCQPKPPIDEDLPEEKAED
# tracheal relaxation = details: background, ref 9a, cited from earlier work; for cardiac or behavioral stimulation: accompanying tracheal relaxation
# cardiac depression = details: background, ref 9b; cited from earlier work
# A2 adenosine receptors [2] = biological target: T1, A2 adenosine receptors; set-up: A2 -adenosine receptors in rat striatal membranes; from tissue; host or cells: rat striatum membranes; details: cited from earlier work
# A1 -adenosine receptors [3] = details: ref 10a; cited from earlier work
# A1 -adenosine receptors [4] = details: background; cited from earlier work
# [5] = rat cortical membranes, [3H]PIA, single determination in triplicate or average of three ± S.E.M., read-out: Ki A1-receptors
# [6] = values taken from Bruns et al. (ref 18)
# [7] = read-out: Ki A2-receptors, rat striatal membranes, [3H]NECA, single determination in triplicate or average of three ± S.E.M.
# T1 sequence (P30543 whole entry): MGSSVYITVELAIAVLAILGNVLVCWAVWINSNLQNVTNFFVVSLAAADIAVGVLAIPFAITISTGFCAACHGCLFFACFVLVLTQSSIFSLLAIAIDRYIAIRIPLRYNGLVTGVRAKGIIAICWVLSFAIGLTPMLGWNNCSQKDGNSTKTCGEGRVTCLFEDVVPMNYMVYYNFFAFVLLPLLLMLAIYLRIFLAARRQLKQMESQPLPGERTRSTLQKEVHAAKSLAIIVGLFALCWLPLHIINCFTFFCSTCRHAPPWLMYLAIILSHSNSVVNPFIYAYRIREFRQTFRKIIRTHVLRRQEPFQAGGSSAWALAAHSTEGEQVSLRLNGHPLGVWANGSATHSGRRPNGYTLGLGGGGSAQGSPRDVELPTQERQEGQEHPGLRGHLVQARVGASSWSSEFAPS
SMILES,Ki (A2 adenosine receptors [1]) [µM],Ki (A1 adenosine receptors; [5]) [µM],Ki (A2)/Ki (A1) (A1 adenosine receptors),further results
Cn1c(=O)c2[nH]c(-c3cccs3)nc2n(C)c1=O [Compound 17],1.63,0.233 ± 0.0486,6.97,
Cn1c(=S)c2c(ncn2C)n(C)c1=O [6-thiocaffeine],,,,cardiac or behavioral stimulation (tracheal relaxation): without cardiac or behavioral stimulation; tracheal relaxation (tracheal relaxation): induce tracheal relaxation; cardiac effect (cardiac depression): cause cardiac depression rather than stimulation
"Cn1c(=O)c2[nH]c(-c3ccco3)nc2n(C)c1=O [Compound 15, reference compound]",,,7.94,Ki (A2 adenosine receptors [2]; [6]): 2.78 µM
CCCn1c(=O)c2[nH]c(-c3cccs3)nc2n(CCC)c1=O [Compound 19],0.381 ± 0.0277,0.0161 ± 0.00196,23.6,
CCCn1c(=O)c2[nH]c(-c3ccc(OCC(=O)OCC)cc3)nc2n(CCC)c1=O [Compound 29],> 10,0.042 ± 0.003,> 238,
Cn1c(=O)c2[nH]c(C3CCCC3)nc2n(C)c1=S [Compound 13],1.39,0.008,170,
"CCCn1c(=O)c2[nH]c(-c3ccc(OCC(=O)N(C)CCN(C)C)cc3)nc2n(CCC)c1=S [Compound 37, (8-[2-Dimethylaminoethyl[N-methylamino[carbonyl[methyl[oxyphenyl]]]]]-2-thio-1,3-dipropylxanthine)]",0.0245 ± 0.0084,0.00257 ± 0.00067,,
Cn1c(=S)c2[nH]cnc2n(C)c1=O [6-thiotheophylline],,,,cardiac or behavioral stimulation (tracheal relaxation): without cardiac or behavioral stimulation; tracheal relaxation (tracheal relaxation): induce tracheal relaxation; cardiac effect (cardiac depression): cause cardiac depression rather than stimulation
"Cn1c(=O)c2nc(-c3ccoc3)[nH]c2n(C)c1=O [Compound 16, reference compound]",,,13.6,Ki (A2 adenosine receptors [2]; [6]): 0.984 ± 0.07 µM
"CCCn1c(=O)c2nc(-c3ccc(OCC(=O)NCCNC(=O)CCCCCCC(=O)ON4C(=O)CCC4=O)cc3)[nH]c2n(CCC)c1=S [Compound 45, N-Succinimidyl 8-[2-[4-(6-Carboxy-n-hexyl)carbonylaminoethyl[amino[carbonyl[methyloxyphenyl]]]]]-1,3-dipropyl-2-thioxanthine]",,,,Ki (A1 adenosine receptors): 0.0335 µM
"CCCn1c(=O)c2[nH]c(-c3ccc(OCC(=O)O)cc3)nc2n(CCC)c1=S [Compound 28, 8-(4-(carboxymethyloxy)phenyl)-1,3-dipropyl-2-thioxanthine]",0.315 ± 0.0608,0.0538 ± 0.0071,5.86,enhancement of potency at A2-receptors by the 2-thio substitution (A2 adenosine receptors [1]; 28 versus oxygen analog 27): 7 fold
CCCn1c(=O)c2[nH]c(-c3ccc(OCC(=O)OCC)cc3)nc2n(CCC)c1=S [Compound 30],> 5,0.00678 ± 0.00064,> 740,
CCCn1c(=O)c2[nH]c(-c3ccsc3)nc2n(CCC)c1=O [Compound 20],0.121 ± 0.0182,0.01 ± 3e-05,12.1,"A2 affinity/potency, in words (A2 adenosine receptors [1]): Preference for 3-thienyl derivatives was evident particularly at the A2 -subtype"
CCCn1c(=O)c2[nH]c(C3CCCC3)nc2n(CCC)c1=S [Compound 14],0.314 ± 0.062,0.000655 ± 5.8e-05,479,"A1-selectivity, in words (A1 adenosine receptors; A1 versus A2 binding, relative to oxygen analogs): a greater margin of A1 -selectivity; A1 affinity/potency, in words (A1 adenosine receptors): the A1 affinity was enhanced by the thio substitution"
Cn1c(=O)c2[nH]c(-c3ccsc3)nc2n(C)c1=O [Compound 18],0.841 ± 0.109,0.152 ± 0.027,5.53,"A2 affinity/potency, in words (A2 adenosine receptors [1]): Preference for 3-thienyl derivatives was evident particularly at the A2 -subtype"
CCCn1c(=O)c2[nH]c(-c3ccc(OCC(=O)NCCN)cc3)nc2n(CCC)c1=S [Compound 31],0.0263 ± 0.00176,0.00269 ± 0.00077,9.8,"A2 affinity/potency, in words (A2 adenosine receptors [1]): enhanced over the oxygen analog; A1 affinity/potency, in words (A1 adenosine receptors): with less affinity at A1 -receptors than the corresponding oxygen analog"
CCCn1c(=O)c2[nH]c(-c3ccc(OCC(=O)O)cc3)nc2n(CCC)c1=O [Compound 27],,0.058 ± 0.003,37.8,Ki (A2 adenosine receptors [1]; [7]): 2.2 µM
Cn1c(=O)c2nc(-c3cccs3)[nH]c2n(C)c1=S [Compound 21],,0.221 ± 0.0433,7.87,Ki (A2 adenosine receptors [1]; [7]): 1.74 µM
"CCCn1c(=O)c2[nH]c(-c3ccc(OCC(=O)NCCN)cc3)nc2n(CCC)c1=O [Compound 3, 8-(4-(2-amino-ethylaminocarbonylmethyloxy)phenyl)-1,3-dipropylxanthine]",,,,potency in binding at A1-adenosine receptors versus theophylline (A1 -adenosine receptors [4]): more than four orders of magnitude more potent than theophylline
"CCCn1c(=O)c2[nH]c(C3CCCC3)nc2n(CCC)c1=O [Compound 2b, 8-cyclopentyl-1,3-dipropylxanthine]",,,,potency in binding at A1-adenosine receptors versus theophylline (A1 -adenosine receptors [4]): more than four orders of magnitude more potent than theophylline

# Now from value to compound, other results behind:
Ki (A2 adenosine receptors [1]) [µM],Ki (A1 adenosine receptors; [5]) [µM],Ki (A2)/Ki (A1) (A1 adenosine receptors),SMILES,further results
,0.0024 ± 0.00028,,CCCn1c(=O)c2[nH]c(-c3ccc(OCC(=O)NCCNC)cc3)nc2n(CCC)c1=S [Compound 33],
0.0279 ± 0.0075,0.00255 ± 0.0006,11,CCCn1c(=O)c2[nH]c(-c3ccc(OCC(=O)NCCN(C)C)cc3)nc2n(CCC)c1=S [Compound 35],
0.87,,10,CCCn1c(=O)c2[nH]c(-c3ccc(OCC(=O)NCCNC(=O)[C@@H](CCCCNC(=O)OCc4ccccc4)NC(=O)OC(C)(C)C)cc3)nc2n(CCC)c1=S [Compound 39],
0.00503 ± 0.00054,,1.8,CCCn1c(=O)c2[nH]c(-c3ccc(OCC(=O)NCCN(C)C)cc3)nc2n(CCC)c1=O [Compound 34],
,0.00744 ± 0.00098,85,CCCn1c(=O)c2[nH]c(-c3ccc(OCC(=O)NCCNC(=O)CCCCCCC(=O)NCc4cccs4)cc3)nc2n(CCC)c1=O [Compound 49],Ki (A2 adenosine receptors [1]; [7]): 0.63 ± 0.16 µM
8.98,0.202 ± 0.026,44.4,Cn1c(=S)c2[nH]c(C3CCCC3)nc2n(C)c1=O [Compound 54],
0.147 ± 0.005,0.0183 ± 0.003,8.1,CCCn1c(=O)c2[nH]c(-c3ccc(OCC(=O)NCCNC(=O)Cc4cccs4)cc3)nc2n(CCC)c1=O [Compound 46],
11.5,0.0405 ± 0.0066,285,Cn1c(=S)c2[nH]c(C3CCCC3)nc2n(C)c1=S [Compound 52],
2.78,0.00487 ± 0.00082,572,CCCn1c(=S)c2[nH]c(C3CCCC3)nc2n(CCC)c1=S [Compound 53],"A2 affinity/potency, in words (A2 adenosine receptors [1]): intermediate in potency between the corresponding 2-thio and 6-thio analogs; A1 affinity/potency, in words (A1 adenosine receptors): intermediate in potency between the corresponding 2-thio and 6-thio analogs"
3.36,0.0155 ± 0.0015,217,"CCCn1c(=S)c2[nH]c(C3CCCC3)nc2n(CCC)c1=O [Compound 55, 8-cyclopentyl-1,3-dipropyl-6-thioxanthine]",fold less potent at A1-receptors (A1 adenosine receptors): 17 fold
0.322 ± 0.017,,36,CCCn1c(=O)c2[nH]c(-c3ccc(OCC(=O)NCCNC(=O)[C@H](N)CCCCNC(=O)OCc4ccccc4)cc3)nc2n(CCC)c1=S [Compound 41],
11.3,1.38,8.18,Cn1c(=S)c2[nH]c(-c3ccccc3)nc2n(C)c1=O [Compound 56],
,0.00087 ± 9e-05,210,CCCn1c(=O)c2[nH]c(-c3ccc(OCC(=O)NCCNC(=O)[C@H](N)CCCCN)cc3)nc2n(CCC)c1=O [Compound 42],Ki (A2 adenosine receptors [1]; [7]): 0.18 µM
3.51,1.01,3.47,CCn1c(=S)c2[nH]c(-c3ccccc3)nc2n(CC)c1=O [Compound 57],"fold less potent at A2-receptors (A2 adenosine receptors [1]; 6-thio analog 57 versus DPX, 24): 12 fold; fold less potent at A1-receptors (A1 adenosine receptors): 23 fold"
0.116 ± 0.025,0.0113 ± 0.0015,10.3,CCCn1c(=O)c2[nH]c(-c3ccc(OCC(=O)NCCNC(=O)Cc4ccc(I)s4)cc3)nc2n(CCC)c1=O [Compound 48],
,,56,CCCn1c(=O)c2[nH]c(-c3ccc(OCC(=O)NCCNC(=O)CCCCCCC(=O)ON4C(=O)CCC4=O)cc3)nc2n(CCC)c1=O [Compound 44],irreversible inhibitor of A1-adenosine receptors at concentrations (A1 -adenosine receptors [3]): greater than 50 nM; Ki (A2 adenosine receptors [2]; values taken from Jacobson et al. (ref 10)): 0.207 ± 0.057 µM
0.191 ± 0.013,,30,CCCn1c(=O)c2[nH]c(-c3ccc(OCC(=O)NCCNC(=O)[C@H](N)CCCCNC(=O)OCc4ccccc4)cc3)nc2n(CCC)c1=O [Compound 40],
0.0468 ± 0.0094,,3.6,CCCn1c(=O)c2[nH]c(-c3ccc(OCC(=O)NCCNC(=O)[C@H](N)CCCCN)cc3)nc2n(CCC)c1=S [Compound 43],

# Source: patent US5453426A, “Sulfur-containing xanthine derivatives as adenosine antagonists” (priority 1994, dated 1995)
